Test results reported in PubChem BioAssay AID256 (DTP/NCI, 2004).
“And” between values parts separate entries of the source, which are not always exact repeats. Identical values can stand only once. Toxic doses and inconclusive results are not listed. Rule for the calls: active = survival T/C of 150% or more; inactive = T/C below 125% in these data.

Test system: CD2F1 mice, L1210 leukemia ip, survival T/C
Test: NCI In Vivo Anticancer Drug Screen. Data for tumor model L1210 Leukemia (intraperitoneal) in CD2F1 (CDF1) mice
Conditions: higher = longer survival
Procedure, shortened: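 Ratio T/C, where T is the treated-group value and C the vehicle-dosed control value, from mice implanted with a transplantable tumor.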

[1] = endpoint: mean survival time, dose: 100.0 mg/kg/injection, schedule: Q01DX009 (ip), vehicle: saline with Tween-80
[2] = endpoint: mean survival time, dose: 200.0 mg/kg/injection, schedule: Q01DX009 (ip), vehicle: saline with Tween-80
[3] = endpoint: mean survival time, dose: 400.0 mg/kg/injection, schedule: Q01DX009 (ip), vehicle: saline with Tween-80
[4] = endpoint: mean survival time, dose: 100.0 mg/kg/injection, schedule: Q04DX003 (ip), vehicle: saline with Tween-80
[5] = endpoint: mean survival time, dose: 200.0 mg/kg/injection, schedule: Q04DX003 (ip), vehicle: saline with Tween-80
[6] = endpoint: mean survival time, dose: 400.0 mg/kg/injection, schedule: Q04DX003 (ip), vehicle: saline with Tween-80
[7] = endpoint: mean survival time, dose: 100.0 mg/kg/injection, schedule: Q01DX001 (ip), vehicle: saline with Tween-80

Measured: T/C

COc1ccc(C2=CC(c3ccccc3)C(c3ccccc3)C(=O)N2)cc1 (stereo unspecified)
inactive: endpoint: mean survival time, dose: 25.0 mg/kg/injection, schedule: Q04DX002 (ip), vehicle: saline with Tween-80 98 % of control | endpoint: mean survival time, dose: 200.0 mg/kg/injection, schedule: Q04DX002 (ip), vehicle: saline with Tween-80 97 % of control | endpoint: mean survival time, dose: 400.0 mg/kg/injection, schedule: Q04DX002 (ip), vehicle: saline with Tween-80 90 % of control

CCn1cnccc1=O
inactive: endpoint: mean survival time, dose: 100.0 mg/kg/injection, schedule: Q04DX002 (ip), vehicle: saline 92 % of control | endpoint: mean survival time, dose: 200.0 mg/kg/injection, schedule: Q04DX002 (ip), vehicle: saline 109 % of control | endpoint: mean survival time, dose: 300.0 mg/kg/injection, schedule: Q04DX002 (ip), vehicle: saline 115 % of control | endpoint: mean survival time, dose: 450.0 mg/kg/injection, schedule: Q04DX002 (ip), vehicle: saline 117 % of control

CC(C(=O)c1cc(O)c(O)cc1C(O)(C(F)(F)F)C(F)(F)F)C(O)(C(F)(F)F)C(F)(F)F (stereo unspecified)
inactive: [1] 94 % of control | [2] 94 % of control | [3] 94 % of control

NC(=O)OCCc1ccccc1
inactive: endpoint: mean survival time, dose: 100.0 mg/kg/injection, schedule: Q04DX003 (ip), vehicle: Klucel (hydroxypropylcellulose) (HPC) 94 % of control | endpoint: mean survival time, dose: 200.0 mg/kg/injection, schedule: Q04DX003 (ip), vehicle: Klucel (hydroxypropylcellulose) (HPC) 102 % of control

COC(=O)C1C2OC(C(Br)C2Br)C1C(=O)OC (stereo unspecified)
inactive: [1] 100 % of control | [4] 97 % of control | [2] 92 % of control | [5] 93 % of control | [3] 100 % of control | [6] 92 % of control

[Br][Pt+2][Br].[NH-]c1ccccc1F.[NH-]c1ccccc1F
inactive: endpoint: mean survival time, dose: 3.13 mg/kg/injection, schedule: Q04DX003 (ip), vehicle: distilled water + Tween-80 104 % of control | endpoint: mean survival time, dose: 6.25 mg/kg/injection, schedule: Q04DX003 (ip), vehicle: distilled water + Tween-80 104 % of control | endpoint: mean survival time, dose: 12.5 mg/kg/injection, schedule: Q04DX003 (ip), vehicle: distilled water + Tween-80 108 % of control | endpoint: mean survival time, dose: 25.0 mg/kg/injection, schedule: Q04DX003 (ip), vehicle: distilled water + Tween-80 108 % of control | endpoint: mean survival time, dose: 50.0 mg/kg/injection, schedule: Q04DX003 (ip), vehicle: distilled water + Tween-80 101 % of control | endpoint: mean survival time, dose: 100.0 mg/kg/injection, schedule: Q04DX003 (ip), vehicle: distilled water + Tween-80 93 % of control

CC(=O)CC(C)(C)S(=O)(=O)Cc1ccccc1
inactive: endpoint: mean survival time, dose: 100.0 mg/kg/injection, schedule: Q01DX001 (ip), vehicle: Klucel (hydroxypropylcellulose) (HPC) 93 % of control | endpoint: mean survival time, dose: 200.0 mg/kg/injection, schedule: Q01DX001 (ip), vehicle: Klucel (hydroxypropylcellulose) (HPC) 96 % of control | endpoint: mean survival time, dose: 400.0 mg/kg/injection, schedule: Q01DX001 (ip), vehicle: Klucel (hydroxypropylcellulose) (HPC) 96 % of control

O=c1nc(NCC2CCCO2)ccn1C1OC(CO)C(O)C1O (stereo unspecified)
inactive: endpoint: median survival time, dose: 12.5 mg/kg/injection, schedule: Q01DX005 (ip), vehicle: water 101 % of control | endpoint: median survival time, dose: 25.0 mg/kg/injection, schedule: Q01DX005 (ip), vehicle: water 101 % of control | endpoint: median survival time, dose: 50.0 mg/kg/injection, schedule: Q01DX005 (ip), vehicle: water 101 % of control | endpoint: median survival time, dose: 100.0 mg/kg/injection, schedule: Q01DX005 (ip), vehicle: water 97 % of control | endpoint: median survival time, dose: 200.0 mg/kg/injection, schedule: Q01DX005 (ip), vehicle: water 98 % of control

CC(C)c1cc(C(C)C)nc(NNc2nc(C(C)C)cc(C(C)C)n2)n1
inactive: [4] 102 % of control | [5] 100 % of control | [6] 100 % of control

CN1N=C(N)c2cn(C3OC(CO)C4OC(C)(C)OC43)c3ncnc1c23 (stereo unspecified)
inactive: endpoint: mean survival time, dose: 12.5 mg/kg/injection, schedule: Q01DX005 (ip), vehicle: water 87 % of control | endpoint: mean survival time, dose: 25.0 mg/kg/injection, schedule: Q01DX005 (ip), vehicle: water 96 % of control | endpoint: mean survival time, dose: 50.0 mg/kg/injection, schedule: Q01DX005 (ip), vehicle: water 104 % of control | endpoint: mean survival time, dose: 100.0 mg/kg/injection, schedule: Q01DX005 (ip), vehicle: water 104 % of control

CCCCC(CCC)(CCN)CCCC
inactive: endpoint: mean survival time, dose: 3.0 mg/kg/injection, schedule: Q01DX009 (ip), vehicle: saline 106 % of control | endpoint: mean survival time, dose: 6.0 mg/kg/injection, schedule: Q01DX009 (ip), vehicle: saline 98 % of control | endpoint: mean survival time, dose: 12.0 mg/kg/injection, schedule: Q01DX009 (ip), vehicle: saline 104 % of control | endpoint: mean survival time, dose: 12.5 mg/kg/injection, schedule: Q04DX003 (ip), vehicle: saline 103 % of control

Oc1ccc(Cl)cc1Sc1cc(Cl)ccc1O
inactive: endpoint: mean survival time, dose: 100.0 mg/kg/injection, schedule: Q04DX003 (ip), vehicle: other 108 % of control

Nc1cccc2[nH]c(=O)c3ccccc3c12
inactive: endpoint: mean survival time, dose: 100.0 mg/kg/injection, schedule: Q01DX001 (ip), vehicle: carboxymethylcellulose (CMC) 100 % of control | endpoint: mean survival time, dose: 200.0 mg/kg/injection, schedule: Q01DX001 (ip), vehicle: carboxymethylcellulose (CMC) 97 % of control | endpoint: mean survival time, dose: 400.0 mg/kg/injection, schedule: Q01DX001 (ip), vehicle: carboxymethylcellulose (CMC) 100 % of control

COC(=O)C(Br)c1ccccc1 (stereo unspecified)
inactive: [7] 108 % of control | endpoint: mean survival time, dose: 200.0 mg/kg/injection, schedule: Q01DX001 (ip), vehicle: saline with Tween-80 91 % of control | endpoint: mean survival time, dose: 400.0 mg/kg/injection, schedule: Q01DX001 (ip), vehicle: saline with Tween-80 97 % of control

CCOC(=O)c1cc([N+](=O)[O-])c(Sc2ncnc3nc[nH]c23)c([N+](=O)[O-])c1
inactive: endpoint: mean survival time, dose: 0.63 mg/kg/injection, schedule: Q01DX005 (ip), vehicle: other 104 % of control | endpoint: mean survival time, dose: 1.25 mg/kg/injection, schedule: Q01DX005 (ip), vehicle: other 109 % of control | endpoint: mean survival time, dose: 2.5 mg/kg/injection, schedule: Q01DX005 (ip), vehicle: other 101 % of control | endpoint: mean survival time, dose: 5.0 mg/kg/injection, schedule: Q01DX005 (ip), vehicle: other 114 % of control | endpoint: mean survival time, dose: 10.0 mg/kg/injection, schedule: Q01DX005 (ip), vehicle: other 114 % of control | endpoint: mean survival time, dose: 20.0 mg/kg/injection, schedule: Q01DX005 (ip), vehicle: other 113 % of control | endpoint: mean survival time, dose: 40.0 mg/kg/injection, schedule: Q01DX005 (ip), vehicle: other 120 % of control | endpoint: mean survival time, dose: 80.0 mg/kg/injection, schedule: Q01DX005 (ip), vehicle: other 117 % of control

CCC(/C=N/N=C(N)N)=N\N=C(N)N
inactive: endpoint: mean survival time, dose: 15.0 mg/kg/injection, schedule: Q01DX010 (ip), vehicle: saline 95 % of control | endpoint: mean survival time, dose: 60.0 mg/kg/injection, schedule: Q01DX010 (ip), vehicle: saline 101 % of control

O=C1NC(c2ccccc2)C([N+](=O)[O-])=C1O (stereo unspecified)
inactive: endpoint: mean survival time, dose: 100.0 mg/kg/injection, schedule: Q01DX009 (ip), vehicle: saline sonified 101 % of control | [1] 101 % of control | endpoint: mean survival time, dose: 200.0 mg/kg/injection, schedule: Q01DX009 (ip), vehicle: saline sonified 98 % of control | [2] 95 % of control | endpoint: mean survival time, dose: 400.0 mg/kg/injection, schedule: Q01DX009 (ip), vehicle: saline sonified 102 % of control | [3] 97 % of control

N#CC(CC(=O)OCc1ccccc1)NC(=O)OCc1ccccc1 (stereo unspecified)
inactive: [5] 86 % of control | [6] 94 % of control

NC(=O)c1cc(=O)[nH]o1
inactive: [1] 102 % of control | [2] 96 % of control | [3] 107 % of control

CCCCCOc1nccc(N)n1
inactive: [7] 98 % of control

COc1ccc2oc(-c3ccc(Cl)cc3)c(N3CCN(C)CC3)c2c1
inactive: endpoint: median survival time, dose: 15.0 mg/kg/injection, schedule: Q01DX005 (ip), vehicle: saline 104 % of control | endpoint: median survival time, dose: 30.0 mg/kg/injection, schedule: Q01DX005 (ip), vehicle: saline 103 % of control | endpoint: median survival time, dose: 60.0 mg/kg/injection, schedule: Q01DX005 (ip), vehicle: saline 100 % of control | endpoint: median survival time, dose: 120.0 mg/kg/injection, schedule: Q01DX005 (ip), vehicle: saline 107 % of control | endpoint: median survival time, dose: 240.0 mg/kg/injection, schedule: Q01DX005 (ip), vehicle: saline 119 % of control

O=C(CNC(=O)Nc1cccc(C(F)(F)F)c1)N/N=C/c1ccco1
inactive: endpoint: mean survival time, dose: 50.0 mg/kg/injection, schedule: Q01DX009 (ip), vehicle: saline with Tween-80 92 % of control | [1] 92 % of control | [2] 88 % of control

O=C1OC2CCC13CCCCC3C2 (stereo unspecified)
inactive: [4] 96 % of control | [5] 88 % of control | [6] 86 % of control

O=C1C(Cl)=C(NCC2CCC(CO)CC2)C(=O)c2ccccc21 (stereo unspecified)
inactive: endpoint: mean survival time, dose: 6.25 mg/kg/injection, schedule: Q04DX003 (ip), vehicle: saline with Tween-80 98 % of control | endpoint: mean survival time, dose: 12.5 mg/kg/injection, schedule: Q04DX003 (ip), vehicle: saline with Tween-80 97 % of control | endpoint: mean survival time, dose: 25.0 mg/kg/injection, schedule: Q04DX003 (ip), vehicle: saline with Tween-80 95 % of control and 98 % of control
